Measurements as given in the kinase profiling compilation of Christmann-Franck et al. (2016).
Several values for one entry are separate records, joined by “and”; a condition that tells them apart may be missing. Equal values may be shown once.

Experiments:
Test in all cases: radiometric filter-binding kinase assay, Kinase HotSpot
Details in all cases: compound 0.5 µM; ATP 10 µM
[1] = molecular target: ACVR1B (human) (UniProt P36896)
[2] = molecular target: AKT3 (human) (UniProt Q9Y243)
[3] = molecular target: BMX (human) (UniProt P51813)
[4] = molecular target: CAMKK2 (human) (UniProt Q96RR4)
[5] = molecular target: CDK1 CCNA2 (human) (UniProt P06493+P20248)
[6] = molecular target: CDK6 CCND3 (human) (UniProt P30281+Q00534)
[7] = molecular target: CSK (human) (UniProt P41240)
[8] = molecular target: CSNK1A1 (human) (UniProt P48729)
[9] = molecular target: CSNK1G1 (human) (UniProt Q9HCP0)
[10] = molecular target: ERBB2 (human) (UniProt P04626)
[11] = molecular target: ERBB4 (human) (UniProt Q15303)
[12] = molecular target: FGFR3 (human) (UniProt P22607)
[13] = molecular target: FGFR4 (human) (UniProt P22455)
[14] = molecular target: JAK1 JH1 catalytic (human) (UniProt P23458)
[15] = molecular target: LIMK1 (human) (UniProt P53667)
[16] = molecular target: MAP2K1 (human) (UniProt Q02750)
[17] = molecular target: MAP3K9 (human) (UniProt P80192)
[18] = molecular target: MAPK11 (human) (UniProt Q15759)
[19] = molecular target: MAPK12 (human) (UniProt P53778)
[20] = molecular target: MAPK8 (human) (UniProt P45983)
[21] = molecular target: MARK4 (human) (UniProt Q96L34)
[22] = molecular target: MATK (human) (UniProt P42679)
[23] = molecular target: MYLK (human) (UniProt Q15746)
[24] = molecular target: PAK2 (human) (UniProt Q13177)
[25] = molecular target: PIM1 (human) (UniProt P11309)
[26] = molecular target: PLK3 (human) (UniProt Q9H4B4)
[27] = molecular target: PRKG1 (human) (UniProt Q13976)
[28] = molecular target: PRKG2 (human) (UniProt Q13237)
[29] = molecular target: PTK2B (human) (UniProt Q14289)
[30] = molecular target: RIPK2 (human) (UniProt O43353)
[31] = molecular target: RPS6KA3 KD1 KD2 (human) (UniProt P51812)
[32] = molecular target: RPS6KA5 KD2 (human) (UniProt O75582)
[33] = molecular target: SGK3 (human) (UniProt Q96BR1)
[34] = molecular target: SRC (human) (UniProt P12931)
[35] = molecular target: SRMS (human) (UniProt Q9H3Y6)
[36] = molecular target: SRPK1 (human) (UniProt Q96SB4)
[37] = molecular target: STK3 (human) (UniProt Q13188)
[38] = molecular target: TAOK3 (human) (UniProt Q9H2K8)
[39] = molecular target: TGFBR1 (human) (UniProt P36897)
[40] = molecular target: TNK2 (human) (UniProt Q07912)
[41] = molecular target: FGFR2 (human) (UniProt P21802)
[42] = molecular target: PRKD2 (human) (UniProt Q9BZL6)

MARK4 (human), sequence (Q96L34 whole entry, looked up): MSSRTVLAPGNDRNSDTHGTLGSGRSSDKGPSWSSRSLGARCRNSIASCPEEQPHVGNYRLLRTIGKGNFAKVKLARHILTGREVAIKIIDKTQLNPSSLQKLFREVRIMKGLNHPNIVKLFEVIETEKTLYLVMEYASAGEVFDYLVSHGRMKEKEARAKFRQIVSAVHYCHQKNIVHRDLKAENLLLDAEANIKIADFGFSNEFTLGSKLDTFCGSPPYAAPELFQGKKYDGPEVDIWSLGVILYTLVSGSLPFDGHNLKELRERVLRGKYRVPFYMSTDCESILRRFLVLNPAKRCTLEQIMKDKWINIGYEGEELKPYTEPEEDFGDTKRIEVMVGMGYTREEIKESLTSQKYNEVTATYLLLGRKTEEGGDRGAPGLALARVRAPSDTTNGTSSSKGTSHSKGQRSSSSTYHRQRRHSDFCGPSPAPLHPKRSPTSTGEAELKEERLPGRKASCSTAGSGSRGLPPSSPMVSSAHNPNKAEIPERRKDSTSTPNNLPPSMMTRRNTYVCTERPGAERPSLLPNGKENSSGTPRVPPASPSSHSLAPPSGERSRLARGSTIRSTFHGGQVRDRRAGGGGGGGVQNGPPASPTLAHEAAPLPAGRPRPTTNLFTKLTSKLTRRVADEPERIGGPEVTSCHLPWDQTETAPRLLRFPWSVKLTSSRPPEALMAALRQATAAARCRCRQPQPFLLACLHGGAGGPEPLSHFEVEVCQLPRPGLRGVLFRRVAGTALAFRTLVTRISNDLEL
CSNK1A1 (human), sequence (P48729 whole entry, looked up): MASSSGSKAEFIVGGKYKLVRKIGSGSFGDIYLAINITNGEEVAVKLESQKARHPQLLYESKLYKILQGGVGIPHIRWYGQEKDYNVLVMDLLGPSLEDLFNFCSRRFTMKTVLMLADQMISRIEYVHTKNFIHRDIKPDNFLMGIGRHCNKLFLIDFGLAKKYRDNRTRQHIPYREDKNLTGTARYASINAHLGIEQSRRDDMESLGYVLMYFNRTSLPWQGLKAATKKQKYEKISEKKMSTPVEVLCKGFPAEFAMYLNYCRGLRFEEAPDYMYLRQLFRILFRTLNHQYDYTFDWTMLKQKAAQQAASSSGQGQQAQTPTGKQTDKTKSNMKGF
RPS6KA3 KD1 KD2 (human), sequence (P51812 whole entry, looked up): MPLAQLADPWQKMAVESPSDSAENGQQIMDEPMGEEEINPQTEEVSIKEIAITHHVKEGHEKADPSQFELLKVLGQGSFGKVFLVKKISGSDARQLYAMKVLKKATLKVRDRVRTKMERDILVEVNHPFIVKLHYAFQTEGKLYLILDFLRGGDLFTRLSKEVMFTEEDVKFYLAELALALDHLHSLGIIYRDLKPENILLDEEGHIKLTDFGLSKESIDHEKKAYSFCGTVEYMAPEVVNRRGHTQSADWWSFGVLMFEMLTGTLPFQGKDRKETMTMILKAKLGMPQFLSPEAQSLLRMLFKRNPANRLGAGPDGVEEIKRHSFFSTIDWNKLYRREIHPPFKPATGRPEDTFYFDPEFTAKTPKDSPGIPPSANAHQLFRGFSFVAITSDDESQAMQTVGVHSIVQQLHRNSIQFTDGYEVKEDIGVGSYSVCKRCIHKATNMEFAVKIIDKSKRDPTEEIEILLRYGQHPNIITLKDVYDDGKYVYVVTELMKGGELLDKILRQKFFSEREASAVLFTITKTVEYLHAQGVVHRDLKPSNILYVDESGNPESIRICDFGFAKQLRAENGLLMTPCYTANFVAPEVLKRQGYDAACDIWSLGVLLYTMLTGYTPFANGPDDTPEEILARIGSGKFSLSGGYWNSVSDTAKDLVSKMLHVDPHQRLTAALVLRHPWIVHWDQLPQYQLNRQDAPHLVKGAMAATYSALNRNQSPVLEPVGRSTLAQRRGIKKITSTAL
SRPK1 (human), sequence (Q96SB4 whole entry, looked up): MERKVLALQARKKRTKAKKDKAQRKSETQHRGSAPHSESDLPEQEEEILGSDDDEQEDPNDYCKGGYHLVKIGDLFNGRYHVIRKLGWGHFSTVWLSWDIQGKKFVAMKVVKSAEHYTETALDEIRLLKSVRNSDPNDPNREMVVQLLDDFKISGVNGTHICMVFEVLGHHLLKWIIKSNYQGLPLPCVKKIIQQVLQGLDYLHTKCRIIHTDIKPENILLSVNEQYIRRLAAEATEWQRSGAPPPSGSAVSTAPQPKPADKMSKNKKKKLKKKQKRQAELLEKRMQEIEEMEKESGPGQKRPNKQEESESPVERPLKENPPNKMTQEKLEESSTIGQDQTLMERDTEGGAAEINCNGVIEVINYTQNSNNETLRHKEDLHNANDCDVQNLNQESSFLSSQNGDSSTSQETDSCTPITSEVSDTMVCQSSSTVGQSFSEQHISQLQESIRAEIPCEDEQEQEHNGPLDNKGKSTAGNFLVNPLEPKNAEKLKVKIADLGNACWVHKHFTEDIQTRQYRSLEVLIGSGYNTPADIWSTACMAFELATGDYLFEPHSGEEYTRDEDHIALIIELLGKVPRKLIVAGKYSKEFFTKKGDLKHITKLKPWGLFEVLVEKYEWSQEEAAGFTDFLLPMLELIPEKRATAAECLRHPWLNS
CAMKK2 (human), sequence (Q96RR4 whole entry, looked up): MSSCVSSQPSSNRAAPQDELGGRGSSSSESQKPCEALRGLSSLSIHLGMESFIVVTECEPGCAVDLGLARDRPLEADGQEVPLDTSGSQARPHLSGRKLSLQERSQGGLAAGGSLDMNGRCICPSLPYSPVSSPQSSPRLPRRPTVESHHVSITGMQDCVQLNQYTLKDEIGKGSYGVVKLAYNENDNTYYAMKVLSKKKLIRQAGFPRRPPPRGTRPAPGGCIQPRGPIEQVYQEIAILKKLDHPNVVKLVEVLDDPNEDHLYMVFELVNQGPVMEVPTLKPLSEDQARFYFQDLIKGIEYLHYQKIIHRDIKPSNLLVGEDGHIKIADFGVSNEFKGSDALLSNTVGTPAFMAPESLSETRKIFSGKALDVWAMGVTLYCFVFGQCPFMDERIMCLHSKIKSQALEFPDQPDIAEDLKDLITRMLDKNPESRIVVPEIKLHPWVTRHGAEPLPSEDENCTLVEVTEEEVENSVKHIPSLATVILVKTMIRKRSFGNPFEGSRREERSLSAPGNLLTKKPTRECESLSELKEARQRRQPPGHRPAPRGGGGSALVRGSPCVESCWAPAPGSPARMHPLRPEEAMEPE
FGFR4 (human), sequence (P22455 whole entry, looked up): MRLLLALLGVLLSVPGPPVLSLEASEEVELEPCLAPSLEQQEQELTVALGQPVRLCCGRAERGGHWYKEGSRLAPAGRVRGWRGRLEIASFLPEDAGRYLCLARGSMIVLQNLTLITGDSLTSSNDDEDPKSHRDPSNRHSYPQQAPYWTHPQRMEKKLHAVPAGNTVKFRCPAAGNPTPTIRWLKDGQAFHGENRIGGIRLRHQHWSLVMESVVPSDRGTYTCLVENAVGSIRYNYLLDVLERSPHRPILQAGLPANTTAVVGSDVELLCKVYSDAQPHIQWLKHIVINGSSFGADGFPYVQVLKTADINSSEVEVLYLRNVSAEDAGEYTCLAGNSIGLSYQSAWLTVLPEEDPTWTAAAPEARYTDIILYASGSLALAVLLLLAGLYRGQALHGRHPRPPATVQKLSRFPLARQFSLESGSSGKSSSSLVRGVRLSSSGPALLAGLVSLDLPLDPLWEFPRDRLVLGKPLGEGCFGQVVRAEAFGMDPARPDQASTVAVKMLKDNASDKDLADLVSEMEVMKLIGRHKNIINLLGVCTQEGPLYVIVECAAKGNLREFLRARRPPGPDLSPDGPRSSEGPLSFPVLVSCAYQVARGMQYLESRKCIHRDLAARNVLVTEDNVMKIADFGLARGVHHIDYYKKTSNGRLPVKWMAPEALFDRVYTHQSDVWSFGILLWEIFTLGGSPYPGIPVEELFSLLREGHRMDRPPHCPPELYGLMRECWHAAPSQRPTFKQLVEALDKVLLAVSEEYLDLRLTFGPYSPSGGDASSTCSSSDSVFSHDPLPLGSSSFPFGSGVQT
PRKG2 (human), sequence (Q13237 whole entry, looked up): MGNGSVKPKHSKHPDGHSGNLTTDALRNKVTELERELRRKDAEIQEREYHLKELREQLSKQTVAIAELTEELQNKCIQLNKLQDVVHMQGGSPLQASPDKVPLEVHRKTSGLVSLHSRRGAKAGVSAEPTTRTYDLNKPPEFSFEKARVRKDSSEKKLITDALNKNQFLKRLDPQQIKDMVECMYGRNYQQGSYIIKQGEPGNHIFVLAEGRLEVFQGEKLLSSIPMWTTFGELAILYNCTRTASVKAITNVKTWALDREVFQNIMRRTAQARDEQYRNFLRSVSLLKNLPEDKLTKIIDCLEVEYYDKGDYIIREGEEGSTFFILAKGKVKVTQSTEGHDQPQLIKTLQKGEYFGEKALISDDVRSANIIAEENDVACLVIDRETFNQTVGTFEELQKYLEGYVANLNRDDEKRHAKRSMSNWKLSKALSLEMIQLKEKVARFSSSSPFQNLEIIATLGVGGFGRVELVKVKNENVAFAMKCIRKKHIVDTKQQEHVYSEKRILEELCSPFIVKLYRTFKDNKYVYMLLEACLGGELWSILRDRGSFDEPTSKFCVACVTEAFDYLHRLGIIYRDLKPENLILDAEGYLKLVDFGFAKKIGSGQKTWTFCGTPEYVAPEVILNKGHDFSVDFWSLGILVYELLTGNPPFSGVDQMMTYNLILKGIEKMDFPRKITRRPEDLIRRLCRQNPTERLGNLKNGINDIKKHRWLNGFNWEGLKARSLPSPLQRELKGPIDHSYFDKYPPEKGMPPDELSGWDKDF
MAPK11 (human), sequence (Q15759 whole entry, looked up): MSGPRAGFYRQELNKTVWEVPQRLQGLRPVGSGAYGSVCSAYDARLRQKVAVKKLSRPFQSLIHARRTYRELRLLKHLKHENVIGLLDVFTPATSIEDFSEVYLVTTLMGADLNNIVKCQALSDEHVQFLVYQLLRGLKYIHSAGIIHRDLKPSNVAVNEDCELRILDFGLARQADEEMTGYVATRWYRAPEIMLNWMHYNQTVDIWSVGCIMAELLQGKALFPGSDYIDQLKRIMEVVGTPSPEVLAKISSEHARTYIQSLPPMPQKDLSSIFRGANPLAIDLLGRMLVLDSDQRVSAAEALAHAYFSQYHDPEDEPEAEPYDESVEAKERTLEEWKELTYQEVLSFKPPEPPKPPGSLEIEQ

Compound | residual activity [1] | residual activity [3] | residual activity [4] | residual activity [7] | residual activity [8] | residual activity [9] | residual activity [10] | residual activity [11] | residual activity [12] | residual activity [13] | residual activity [14] | residual activity [15] | residual activity [16] | residual activity [17] | residual activity [20] | residual activity [21] | residual activity [22] | residual activity [23] | residual activity [24] | residual activity [25] | further results
CCn1cnc2c(Nc3cccc(Cl)c3)nc(N[C@@H]3CCCC[C@@H]3N)nc21 | 110% | 90.7% | 86.1% | 85.4% | 98.7% | 56.8% | 95.6% | 103% | 90.4% | 97.5% | 98.6% | 108% | 92.2% | 54.9% | 97.6% | 95.5% | 88.3% | 91% | 93.9% | 83.8% | residual activity [2]: 95.8%; residual activity [5]: 60.7%; residual activity [6]: 76.9%; residual activity [18]: 94.1%; residual activity [19]: 96.6%; residual activity [26]: 90.1%; residual activity [27]: 91.4% and 91.8%; residual activity [28]: 74.3%; residual activity [29]: 85.7%; residual activity [30]: 70%; residual activity [31]: 64.1%; residual activity [32]: 87.8%; residual activity [33]: 94.3%; residual activity [34]: 54.7%; residual activity [35]: 85.9%; residual activity [36]: 94.2%; residual activity [37]: 83.9%; residual activity [38]: 104%; residual activity [39]: 95.6%; residual activity [40]: 92.4%
O=C1Cc2c([nH]c3ccc(Br)cc23)-c2ccccc2N1 | 99.8% | 99.6% | 77.8% | 88% | 95.1% | 102% | 103% | 101% | 101% | 113% | 102% | 99.2% | 84.3% | 64.6% | 87.5% | 60.2% | 93.6% | 96.3% | 95.5% | 96.8% | residual activity [2]: 105%; residual activity [5]: 88.5%; residual activity [6]: 94.4%; residual activity [41]: 100%; residual activity [18]: 104%; residual activity [26]: 96%; residual activity [42]: 100%; residual activity [27]: 93% and 95.9%; residual activity [28]: 101%; residual activity [29]: 102%; residual activity [30]: 75.9%; residual activity [32]: 99.6%; residual activity [33]: 107%; residual activity [34]: 71.4%; residual activity [35]: 105%; residual activity [36]: 99.6%; residual activity [37]: 83.2%; residual activity [38]: 82.8%; residual activity [39]: 97.7%; residual activity [40]: 38.8%
Nc1nccc(-c2c(-c3ccc(F)cc3)ncn2C2CCNCC2)n1 | 121% | 92.9% | 110% | 90.8% | 2.82% | 83.1% | 93.7% | 86.8% | 100% | 85.7% | 104% | 89.6% | 98.2% | 94.5% | 94.8% | 97.4% | 99.5% | 99.8% | 76.9% | 97% | residual activity [2]: 92.6%; residual activity [5]: 92.7%; residual activity [6]: 95.5%; residual activity [41]: 104%; residual activity [26]: 97.8%; residual activity [42]: 50.4%; residual activity [27]: 88.2% and 97.7%; residual activity [28]: 97.2%; residual activity [29]: 94.6%; residual activity [30]: 77.2%; residual activity [31]: 92.2%; residual activity [32]: 97.9%; residual activity [33]: 97.5%; residual activity [34]: 94.2%; residual activity [35]: 97.5%; residual activity [36]: 103%; residual activity [37]: 103%; residual activity [38]: 95.3%; residual activity [39]: 102%; residual activity [40]: 98%
CC(C)[C@H](CO)Nc1nc(Nc2cc(N)cc(Cl)c2)c2ncn(C(C)C)c2n1 | 107% | 81.9% | 33.2% | 79.3% | 75.5% | 26.4% | 92.9% | 131% | 79.4% | 93.4% | 101% | 107% | 91.3% | 7.81% | 93.4% | 71.2% | 111% | 81.3% | 95.5% | 98% | residual activity [41]: 97.3%; residual activity [18]: 96.3%; residual activity [26]: 62.8%; residual activity [42]: 103%; residual activity [27]: 102% and 104%; residual activity [28]: 88.8%; residual activity [29]: 63.6%; residual activity [30]: 87.7%; residual activity [31]: 54.1%; residual activity [32]: 103%; residual activity [33]: 99.9%; residual activity [34]: 3.75%; residual activity [35]: 96.8%; residual activity [36]: 62.1%; residual activity [37]: 70%; residual activity [38]: 86.9%; residual activity [39]: 103%; residual activity [40]: 47.8%
COc1ccc(CNC(=O)Nc2ncc([N+](=O)[O-])s2)cc1 | 102% | 90.8% | 92.7% | 102% | 92.4% | 97.8% | 96.9% | 95.2% | 108% | 98.9% | 94.2% | 96% | 101% | 101% | 104% | 92.2% | 96.6% | 94.1% | 102% | 104% | residual activity [2]: 95.9%; residual activity [5]: 93.4%; residual activity [6]: 99.1%; residual activity [41]: 97.4%; residual activity [18]: 95.4%; residual activity [26]: 101%; residual activity [42]: 97.3%; residual activity [27]: 95.9% and 97.3%; residual activity [28]: 100%; residual activity [29]: 83.1%; residual activity [30]: 82.8%; residual activity [32]: 99.5%; residual activity [33]: 96.9%; residual activity [34]: 101%; residual activity [35]: 93.3%; residual activity [36]: 92.9%; residual activity [37]: 92.6%; residual activity [38]: 98.5%; residual activity [39]: 95.8%; residual activity [40]: 96.8%
